The text below walks through data of patent US20080113934A1, “USE OF DIPYRIDAMOLE OR MOPIDAMOL FOR TREATMENT AND PREVENTION OF FIBRIN-DEPENDENT MICROCIRCULATION DISORDERS” (priority 1999, published 2008).

“Also recorded” adds a separate entry of the source.

Assay [1] deals with common carotid artery of rabbits (angioplasty site). As to the kind of experiment: Study using radiolabeled platelets and fibrinogen in vivo after balloon angioplasty of the carotid artery. The conditions noted are these: rabbit carotid artery, monitored four hours after angioplasty; heparin 100 U/kg bolus followed by 25 U/kg/h infusion; dipyridamole 0.25 mg/kg followed by 0.45 mg/kg/hr. The procedure:
FIG. 1: Simultaneous detection of ^99Tc labeled platelets and ^123I-labeled fibrinogen at one minute intervals after angioplasty of the common carotid artery of rabbits. […] No injury measurements showing constant radioactivity.
FIG. 2: Deposition of radioactive labeled platelets (^99Tc) and fibrinogen (123I) at angioplasty site after treatment with dipyridamole (0.25 mg/kg followed by 0.45 mg/kg/hr).
The effects of dipyridamole and heparin were investigated using platelets radiolabeled with ^99Tc and fibrinogen labeled with ^123I. The method is described in Lorenz, M. et al., Nuclear Instruments and Methods in Physics Research A., 1994, 353:448-452. An energy-sensitive solid-state radiation detector was placed to surround each carotid artery in rabbits. After inducing injury through balloon angioplasty, the accretion of platelets and fibrinogen was monitored for four hours. […] Accretion was not detected in radiolabeled platelets injected 30 minutes after injury; apparently the angioplasty site had been passivated by endogenous platelet adherence. […] (FIG. 2).

For assay [2] the following is noted: ESPS-2; compared with low-dose aspirin / aspirin alone; cited from earlier work.

With `OCCN(CCO)c1nc(N2CCCCC2)c2nc(N(CCO)CCO)nc(N3CCCCC3)c2n1` [dipyridamole, 2,6-bis(diethanolamino)-4,8-dipiperidino-pyrimido[5,4-d]pyrimidine], in assay [1], the “accretion (deposition) of 99Tc labeled platelets at angioplasty site” value is listed as “reduced; also recorded: reduction in platelet aggregation which was similar to that seen with heparin” and the “accretion (deposition) of 123I-labeled fibrinogen at angioplasty site” value is on record as “almost entirely blocked; also recorded: far greater with dipyridamole than with heparin”. The “reduction of stroke risk” value in assay [2] is “as effective as low-dose aspirin”.

As to heparin, in assay [1], the “accretion (deposition) of 99Tc labeled platelets at angioplasty site” value was “reduction of platelet as well as fibrinogen accretion; also recorded: reduced accumulation of both platelets and fibrinogen”; the “accretion (deposition) of 123I-labeled fibrinogen at angioplasty site” value is “reduction of platelet as well as fibrinogen accretion; also recorded: reduced accumulation of both platelets and fibrinogen”.
